Test results as given in US20190365745A1, “USE OF CHRONIC TREATMENT WITH ATR INHIBITORS TO SENSITIZE CANCER CELLS TO PARP INHIBITORS” (Cornell University, priority 2018, published 2019).

Tested on: U2OS cells
Assay: Real time PCR of mRNA levels
Type: cell-based, Human
Conditions: normalized to GAPDH
Text: FIG. 9B is a bar graph showing the analysis of HR-mediated repair using the DR-GFP system. Relative fold change of GFP positive U2OS cells treated with CHK1i compared to DMSO treatment control. (Error bars=SEM, N=4, ****P-value<0.0001; one sample-t-test was used for the statistical analysis). FIGS. 9C-9D show a histogram showing representative FACS data (FIG. 9C) and a bar graph showing quantitation of G1, S and G2/M population for cell cycle analysis of CHK1i treated cells (FIG. 9D) (Error bars=SD, N=3). FIG. 9E are bar graphs showing real time PCR analysis of total RNA extracted from U2OS cells treated with DMSO, ATRi (5 μM for 8 days) or CHK1i (0.2 μM for 5 days). Values were normalized to GAPDH mRNA levels. (Error bars=SD, N=3). FIG. 9F is a schematic diagram showing a proposed model of how E2F transcription is regulated through ATR-CHK1 signaling. […] FIG. 9H is a bar graph showing DR-GFP analysis of 293-T-REX-E2F6 cells after 8 days of treatment with DMSO or doxycycline. (Error bars=SEM, N=4). FIG. 9I is a histogram showing cell cycle analysis of 293-T-REX-E2F6 cells after 8 days of treatment with DMSO or doxycycline. FIG. 9J is a schematic diagram showing a model depicting multiple roles of ATR in the control of HR capacity.
Cells cultured from 10 cm dish were collected and lysed in 1 ml of TRIzol (Invitrogen). Chloroform was added to the lysed sample to separate RNA. Separated RNA was precipitated by isopropyl alcohol, followed by two washes with 75% ethanol. 1 μg of extracted RNA from each sample was then reverse transcribed with Bio-Rad iScript cDNA synthesis kit. The samples (˜100 ng) were analyzed in a Roche 480 light cycler in a total of 15 μl containing SYBR green mix and primers. The values were calculated using “absolute quantification/2nd derivative max” in lightcycler 480 program and then normalized to the level of GAPDH.

SMILES: CS(=O)(=O)c1ccc(-c2cnc(N)c(C(=O)Nc3ccccc3)n2)cc1 [ATRi, VE-821]
- mRNA levels of BRCA1 and RAD51 (ATRi 5 μM 8 days or CHK1i 0.2 μM 5 days): reduction in the mRNA levels of BRCA1 and RAD51
- mRNA levels of 53BP1 (ATRi 5 μM 8 days): major changes in the mRNA levels of 53BP1 were not observed
